Measured values as given in patent US8183212B2, “Compound having GPR54 agonistic activity” (Kyoto University, priority 2006, dated 2012).
Square brackets hold non-standard residues; d marks the D form. Peptide text beside a SMILES is read from it. 2Nal = N[C@@H](Cc1ccc2ccccc2c1)C(=O)O; 4Amb = NCc1ccc(C(=O)O)cc1; 4Abz = Nc1ccc(C(=O)O)cc1

Molecular target: GPR54 (Homo sapiens, UniProt Q969F8)
Experiment: GPR54 agonist activity by Flipr assay (increase in intracellular Ca2+ measured as fluorescence intensity)
Type: cell-based
Conditions: for % activity: fluorescence intensity with 10^-8 M pentapeptide derivative relative to 10^-6 M metastin (45-54) as 100%; for Q (=EC50 (compound)/EC50 [metastin (45-54)]): specific activity value relative to metastin (45-54)
Protocol: A compound having GPR54 agonist activity (pentapeptide derivative) was prepared according to a conventional Fmoc solid phase synthesis process using Rink-amide resin (Fields G B, Noble R L., Int J Pept Protein Res. 1990; 35, 161-214.). The GPR54 agonist activity of the obtained pentapeptide derivative was evaluated according to Flipr assay method wherein an increase in the intracellular Ca^2+ ion concentration due to receptor stimulation is measured as the fluorescence intensity. […] Hereafter, the agonist activity was mainly compared based on the Q value.

Chain of GPR54 (Q969F8 whole entry, species assumed): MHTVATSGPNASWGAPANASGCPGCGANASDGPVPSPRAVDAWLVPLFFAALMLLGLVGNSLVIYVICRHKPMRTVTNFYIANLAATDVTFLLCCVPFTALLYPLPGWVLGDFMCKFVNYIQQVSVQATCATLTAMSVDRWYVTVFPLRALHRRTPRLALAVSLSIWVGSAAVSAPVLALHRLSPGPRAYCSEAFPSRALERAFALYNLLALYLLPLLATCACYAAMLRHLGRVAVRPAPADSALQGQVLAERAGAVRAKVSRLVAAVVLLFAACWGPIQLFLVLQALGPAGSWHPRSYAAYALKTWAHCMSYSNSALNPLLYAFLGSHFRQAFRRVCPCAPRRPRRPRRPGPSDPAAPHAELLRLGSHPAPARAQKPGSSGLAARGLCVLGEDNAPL

Row | Structure (SMILES) | % activity [%] | other results
1 | CC(C)C[C@H](NC(=O)CNC(=O)[C@H](Cc1ccccc1)NC(=O)c1ccc(CN(Cc2ccccn2)Cc2ccccn2)cc1)C(=O)N[C@@H](CCCNC(=N)N)C(=O)N[C@@H](Cc1c[nH]c2ccccc12)C(N)=O [Compound 1, reference compound] | 89 | 
2 | CC(C)C[C@H](NC(=O)CNC(=O)[C@H](Cc1ccccc1)NC(=O)c1ccc([N+](=O)[O-])cc1)C(=O)N[C@@H](CCCNC(=N)N)C(=O)N[C@@H](Cc1c[nH]c2ccccc12)C(N)=O [Compound 37, 4-nitrobenzoyl-Phe-Gly-Leu-Arg-Trp-NH2] | 94 | 
3 | CC(C)C[C@H](NC(=O)CNC(=O)[C@H](Cc1ccccc1)NC(=O)c1ccc(O)cc1)C(=O)N[C@@H](CCCNC(=N)N)C(=O)N[C@@H](Cc1c[nH]c2ccccc12)C(N)=O [Compound 30, 4-hydroxybenzoyl-Phe-Gly-Leu-Arg-Trp-NH2] | 95 | 
4 | CC(C)C[C@H](NC(=O)CNC(=O)[C@H](Cc1ccccc1)NC(=O)c1ccc(CNC(=N)N)cc1)C(=O)N[C@@H](CCCNC(=N)N)C(=O)N[C@@H](Cc1c[nH]c2ccccc12)C(N)=O [Compound 2, reference compound] | 94 | 
5 | CC(C)C[C@H](NC(=O)CNC(=O)[C@H](Cc1ccccc1)NC(=O)c1ccc(CN)cc1)C(=O)N[C@@H](CCCNC(=N)N)C(=O)N[C@@H](Cc1c[nH]c2ccccc12)C(N)=O [Compound 6, 4-(aminomethyl)benzoyl-Phe-Gly-Leu-Arg-Trp-NH2] (H-[4Amb]FGLRW-NH2) | 97 | Q (=EC50 (compound)/EC50 [metastin (45-54)]): 3.4
6 | CC(C)C[C@H](NC(=O)CNC(=O)[C@H](Cc1ccc2ccccc2c1)NC(=O)c1ccc(CN)cc1)C(=O)N[C@@H](CCCNC(=N)N)C(=O)N[C@@H](Cc1c[nH]c2ccccc12)C(N)=O [Compound 8, 4-(aminomethyl)benzoyl-Nal(2)-Gly-Leu-Arg-Trp-NH2] (H-[4Amb][2Nal]GLRW-NH2) | 89 | agonist activity, times stronger than compound 6 (compared with compound 6): about 4 times
7 | CC(C)C[C@H](NC(=O)CNC(=O)[C@H](Cc1ccccc1)NC(=O)[C@H](CO)NC(=O)[C@H](CC(N)=O)NC(=O)[C@H](Cc1c[nH]c2ccccc12)NC(=O)[C@H](CC(N)=O)NC(=O)[C@@H](N)Cc1ccc(O)cc1)C(=O)N[C@@H](CCCNC(=N)N)C(=O)N[C@@H](Cc1ccccc1)C(N)=O [Metastin (45-54), reference compound] | 100 | EC50: 360 to 1100 pM; Q (=EC50 (compound)/EC50 [metastin (45-54)]): 1.0
8 | CC(C)C[C@H](NC(=O)CNC(=O)[C@H](Cc1ccccc1)NC(=O)c1c[nH]cn1)C(=O)N[C@@H](CCCNC(=N)N)C(=O)N[C@@H](Cc1c[nH]c2ccccc12)C(N)=O [Compound 26, 4-imidazolylcarbonyl-Phe-Gly-Leu-Arg-Trp-NH2] | 88 | 
9 | CC(=O)NCc1ccc(C(=O)N[C@@H](Cc2ccccc2)C(=O)NCC(=O)N[C@@H](CC(C)C)C(=O)N[C@@H](CCCNC(=N)N)C(=O)N[C@@H](Cc2c[nH]c3ccccc23)C(N)=O)cc1 [Compound 28, N-acetyl-4-(aminomethyl)benzoyl-Phe-Gly-Leu-Arg-Trp-NH2] (Ac-[4Amb]FGLRW-NH2) | 100 | 
10 | CC(C)C[C@H](NC(=O)CNC(=O)[C@H](Cc1ccccc1)NC(=O)c1ccc(F)cc1)C(=O)N[C@@H](CCCNC(=N)N)C(=O)N[C@@H](Cc1c[nH]c2ccccc12)C(N)=O [Compound 39, 4-fluorobenzoyl-Phe-Gly-Leu-Arg-Trp-NH2] | 96 | 
11 | CC(C)C[C@H](NC(=O)CNC(=O)[C@H](Cc1ccccc1)NC(=O)c1ccc(N)cc1)C(=O)N[C@@H](CCCNC(=N)N)C(=O)N[C@@H](Cc1c[nH]c2ccccc12)C(N)=O [Compound 20, 4-aminobenzoyl-Phe-Gly-Leu-Arg-Trp-NH2] (H-[4Abz]FGLRW-NH2) | 90 | 
12 | CC(C)C[C@H](NC(=O)CNC(=O)[C@H](Cc1ccccc1)NC(=O)c1ccc[nH]1)C(=O)N[C@@H](CCCNC(=N)N)C(=O)N[C@@H](Cc1c[nH]c2ccccc12)C(N)=O [Compound 27, 2-pyrrolylcarbonyl-Phe-Gly-Leu-Arg-Trp-NH2] | 96 | 
13 | CC(C)C[C@H](NC(=O)CNC(=O)[C@H](Cc1ccccc1)NC(=O)c1ccc(Cl)cc1)C(=O)N[C@@H](CCCNC(=N)N)C(=O)N[C@@H](Cc1c[nH]c2ccccc12)C(N)=O [Compound 38, 4-chlorobenzoyl-Phe-Gly-Leu-Arg-Trp-NH2] | 92 | 
